Data reported in patent US4701441A, “Methods and compositions for stimulation of appetite” (University of Florida, priority 1985, dated 1987).
Like-named read-outs stand apart in the source and are kept apart here. Ends that are not written are not given here.

How the values were obtained:
normal adult male rats = assay: Food intake after NPY and RPP by the Example 1 procedure, Example 3; assay type: in vivo, rat
[1] = system: ovariectomized rats pretreated with estradiol benzoate plus progesterone; assay: Food intake and ingestive behavior after two ivt injections, Example 1; assay type: in vivo, rat
Experimental: Adult female rats (CRL:CD® (SD)BR, Charles River Breeding Labs, Wilmington, MA) were maintained in individual wire bottom cages under controlled temperature and light (lights on 0500-1900 h) with ad libitum access to food and water. Rats were ovariectomized and permanent cannulae were implanted in the third cerebral ventricle under pentobarbital anesthesia (40 mg/kg, […]). Eleven to 13 days after surgery, rats were treated with estradiol benzoate (30 μg in 0.1 ml sesame oil, sc) and progesterone (15 mg in 0.3 ml sesame oil, sc). Two days later […], food and water were removed and patency of the ivt cannula was checked by observing efflux of cerebrospinal fluid. […] Immediately after the ivt injections, rats were returned to their home cages which contained a known amount of rat chow and observed for 60 min. The behavior was recorded in 5 mutually exclusive categories: eating, grooming, locomotion, resting and other [Blundell, Bio-grammar of Feeding: Pharmacological Manipulations and Their Interpretations. In: Cooper, S. J. (ed) Theory in Psychopharmacology, Academic Press, N.Y., Vol. I: 233 (1981)] the following measurements were derived; total food intake (g); latency to feeding response (min); duration of time spent eating (min); number of eating bouts (n); duration of eating bouts (min) and local eating rate (g/min). Local eating rate is a measure of amount of food consumed per unit time spent eating.
Although no attempt was made to quantify the water intake, the latency to drinking and amount of time spent on drinking were monitored.
The number of animals feeding and drinking after peptide treatment were compared with saline-treated rats by the Fisher exact probability test. Parameters of ingestive behavior of controls vs. peptide treated groups were analyzed by the Mann-Whitney U test. Comparisons within groups of parameters after the first and second injections were made with the Wilcoxon matched pairs - signed rank test.
(*=P<0.05; **=P<0.01, Mann-Whitney U tests; a=p<0.05; b=P<0.025; c=P<0.005, Fisher Exact Probability Test) and S=saline.

[2] = system: estradiol benzoate-progesterone-treated ovariectomized rats; assay: Ingestive behavior noticed after ivt hPP during LH release studies; assay type: in vivo, rat; details: intraventricular (ivt) administration
Description: 251; Morley et al (1973), Neurosci. Biobehav. Revs. 7: 281]. Recently, Tatemoto, Proc. Natl. Acad. Sci. USA. […] The detailed distribution pattern of neurons displaying NPY-like immunoreactivity in the rat brain has been described [Allen et al (1983), Science 221:877; Allen et al (1983), 13th Ann. Mtg. Soc. Neurosci. 9:291 (Abstr.); O'Donohue et al (1983), 13th Ann. Mtg. Soc. Neurosci. 9:290 (Abstr.)]. The physiological significance of NPY-like immunoreactivity in the rat brain is presently unknown.

[3] = intravenous administration, Konturek et al; cited from earlier work
hyperphagic obese mice = details: cited from earlier work
[4] = 2 or 10 μg ivt, after second injection, P<0.02
[5] = hyperphagic obese mice, Malaisse et al
[6] = obese mice, intravenous, Zipf et al

Compound: rat pancreatic polypeptide (APLEPMYPGDYATHEQRAQYETQLRRYINTLTRPRY; ends and bridges not checked; UniProt P06303 30-65, looked up) [RPP, rat pancreatic polypeptide, member of the vertebrate pancreatic polypeptides (Pancreatic Hormone III)]
- cumulative food intake (normal adult male rats): enhanced cumulative food intake which is dose-dependent

Compound: human pancreatic polypeptide (APLEPVYPGDNATPEQMAQYAADLRRYINMLTRPRY; ends and bridges not checked; UniProt P01298 30-65, looked up) [hPP, human pancreatic polypeptide, straight-chain 36 amino acid residues; from Boehringer Mannheim]
- rats that ate after the first injection ([1]; 2 μg ivt): 4/6
- rats in which the drinking response preceded the feeding response ([1]; 10 μg ivt): 3/7
- rats that ate after the first injection ([1]; 10 μg ivt): 5/7
- amount of time spent drinking [1, 4]: only the higher does of hPP produced a similar response
- number of animals drinking [1, 4]: only the higher does of hPP produced a similar response
- cumulative food intake ([1]; 2 or 10 μg ivt, compared with saline treated control rats): stimulated cumulative food intake
- number of rats grooming during the observation periods ([1]; ivt): Neither peptide altered the number of rats grooming
- ingestive behavior [2]: enhanced ingestive behavior

Compound: NC(=O)[C@@H]1CCCN1C(=O)[C@H](Cc1cnc[nH]1)NC(=O)[C@@H]1CCC(=O)N1 [TRH, p-Glu-His-Pro-NH2]
- food intake [3]: suppressed food intake

Compound: bovine pancreatic polypeptide [bovine PP]
- body weight gain (hyperphagic obese mice; [5]): suppressed body weight gain
- food intake (hyperphagic obese mice; [5]): reduced food intake
- food intake (hyperphagic obese mice; [6]): decrease of food intake
- weight gain (hyperphagic obese mice; [6]): decrease in weight gain
